Data as given in patent publication US12528840B2, “Transcription active complex targeting cancer drug from viral protein sequence” (The Regents of the University of California, priority 2020, dated 2026).

Tests used:
Format in all cases: cell-based
PEL cells = assay: PEL cell killing by delivered peptide (MTS live-cell assay); details: peptide delivered into PEL, a MYC-dependent cancer
Experimental: FIGS. 1A-H. Viral protein sequence based cancer drug. (FIG. 1A) Discovery of hijacking transcription machinery in KSHV reactivating cells (Chen et al., J. Virol 2017). […] (FIG. 1B) Reporter assay. KSHV ORF50 overexpression inhibits MYC activation. (FIG. 1C) Chromatin immunoprecipitation with Mass Spectrometry. Proteins inducibly interact with both ORF50 and RNA polII are shown. […] (FIG. 1E) Mapping of interacting domain. GST-pull down was performed to identify NCoA2 binding domains. Purified NCoA2 was made from recombinant baculovirus infected cells and KSHV ORF50 deletion proteins were made in E. coli. Peptides are then generated as TAT-fusion for cell penetration. (FIG. 1F) ChIP-seq and RNA-seq. ChIP-seq was performed to identify NCOA2 target genes in primary effusion lymphoma cells. NCoA2 localization is highly associated with active genes and localizes with RNA pol II at enhancer regions. […] The qRT-PCR was performed with specific primers. (FIG. 1H) Gene set enrichment analyses (GSEA). RNA sequencing was performed with peptide-treated PEL cells. […] (FIG. 1I) The peptide drug. Wt peptide or mutant peptide was incubated in culture media. Forty-eight hours later, live cells were measured by applying MTS. Cell viability was compared with no-treated samples. No treated sample was set as 1.

U937 cell line = assay: MTT assay, U937; details: U973 monocytic leukemia cell line
Experimental: (§1) FIG. 6. Viral and cellular responses to K-Rta peptide; identification of VGN50. (a) Protein sequence alignment. FIG. 6(A) The effect of VGN50 on various cancer cell types. MTT assays were performed with the indicated cell lines treated with various VGN50 concentrations. The O.D. of mock-treated samples were set as 100%, and O.D. from detergent treated cells were set as 0%. Percentage viability+/−SD was calculated for each treatment (N=3 samples/treatment). FIG. 6(B) Viability assay with flow cytometry. Cell viability was measured in triplicate with live/dead staining and the cell killing effects on cancer cells was compared with normal peripheral blood mononuclear cells (PBMC) from three healthy donors. Results are presented as percentage viability+/−SD deviation (N=3 samples/group).
(§2) As shown in FIG. 6(a), multiple cancer cell lines were used for MTT assay to evaluate cancer cell killing efficacies of the MBK50 peptide at different concentrations (cell variability studies). […] Importantly, human peripheral blood mononuclear cells (PBMCs) from healthy donors were approximately 10-fold less sensitive to MBK-mediated killing compared to myeloid and lymphoid cancer cell lines (e.g., THP-1 and BCBL-1) as assessed by flow cytometry after live/dead staining (FIG. 6(b)). […]

[1] = test system: Kaposi's sarcoma-associated herpesvirus (KSHV); assay: Total RNA-sequencing of peptide-resistant KSHV-infected B-cells; details: continued peptide incubation, resistant cells vs parental cells
Experimental: FIG. 10. Peptide long-term treatment changes B-cell phenotype. RNA-seq was performed after generating peptide-drug resistant cell population.
The peptide sequence is based on KSHV transactivator protein sequence, and it is expected that the peptide will compete with viral transactivator protein for recruitment of cellular transactivation complex. We continued to incubate with peptide drug in KSHV-naturally infected B-cells and generated resistant cell line (RC). The resistant cells were then used to identify putative drug targets by comparing parental cells with total RNA-sequencing.

human CD3 T cells = assay: CD3 T cell proliferation after anti-CD3/28 stimulation, flow cytometry; details: 32 μM, 24 hours after 16 hours anti-CD3/28
Experimental: To evaluate the effect of the peptide on human CD3 T cells, CD3 T cells were enriched by magnetic beads (CD3 positive selection beads, Stemcell technology) from PBMC samples from 5 healthy donors and stimulated with anti-CD3/28 tetramer (Stemcell technology) in triplicates for 16 hours before treating with PBS, MBK50 (32 μM) and Mutant peptide (32 μM) for 24 hours. Activated proliferating IRF4^+Ki67^+ CD3 T cells (red square in FIG. 5) in the culture were analyzed by live/dead-red staining (Invitrogen) and intracellular staining with anti-Ki67-FITC (Biolegend) and anti-IRF4-APC (Biolegend) antibodies. A representative flow cytometry profiles are shown in FIG. 5(a) for gating live CD3 T cell population and FIG. 5(b) Ki67 vs IRF4 for the gated live CD3 T cells. For FIG. 5(c-e), the means of triplicate cultures in each experiment for live cells % (c, n=5), total CD3 T cell numbers (d, n=5), and % of Ki67^+ cells (e, n=3) are shown in the top panel. The bottom panel are normalized data to PBS control cultures. P values calculated with Prism using one-way ANOVA with paired comparison. p<0.05 statistically significant.

[2] = test system: multiple cancer cell lines; assay: MTT assay on multiple cancer cell lines; details: 0-96 μM; BCBL-1, Ramos, SU-DHL-10, HH, Jurkat, THP-1, U937, A549
Experimental: as §1, §2

IRF4 = assay: Intracellular staining of IRF4 in LPS-activated THP-1 cells; details: THP-1, LPS 100 ng/ml, 16 μM, 24 hours
Excerpt: FIG. 16. Effect of MBK50 on MYC and IRF4 expression in LPS-activated monocytic leukemia cell line THP-1 cells. […] MYC and IRF4 expression levels were examined by intracellular staining of MYC and IRF4 with isotype control staining followed by flow cytometry. FIG. 16(a) A scheme of the experimental procedure. FIG. 16(b) A representative histogram overlay for the MYC expression in THP-1 cells treated with MBK50, mutant control peptide or PBS, with isotype control. The average mean fluorescent intensity (MFI) for MYC expression (n=3) for each treatment is shown in the right panel. FIG. 16(c) A representative histogram overlay for the IRF4 expression (red) in THP-1 cells treated with MBK50, mutant control peptide, or PBS, with isotype control (blue). The average MFI for IRF4 expression for each treatment is shown in the right panel.
MYC is important for monocytic cell proliferation, especially upon LPS stimulation. […] MYC and IRF4 expression levels were examined by intracellular staining of MYC and IRF4 with isotype control staining followed by flow cytometry (FIG. 16a). […] Also, the percentage of THP-1 cells with reduced IRF4 expression was increased by MBK50 treatment compared to mutant control peptide or PBS treatment.

THP-1 = assay: MTT assay, THP-1; details: THP-1 monocytic leukemia cell line
Experimental: as §1, §2

In the case of LSSILQGLYQLDT [MBK50], the “killing of PEL cancer cells” value (PEL cells) is reported as “killed the cancer cells”, the “sensitivity to cell killing” value (U937 cell line) is reported as “sensitive” and the “latently infected KSHV gene expression” value [1] is reported as “significantly down-regulated”. For the same sequence, the “effect on activated proliferating CD3 T cells” value (human CD3 T cells) was “preferentially targets actively dividing cells”, the “cancer cell killing efficacy across cell lines” value [2] was “more effective to lymphoid cell lines” and the “percentage of THP-1 cells with reduced IRF4 expression” value (IRF4) was “increased”. The “sensitivity to cell killing” value (THP-1) was “sensitive”.
